In patent US20220064195A1, “SYNTHETIC I2 IMIDAZOLINE RECEPTOR LIGANDS FOR PREVENTION OR TREATMENT OF HUMAN BRAIN DISORDERS” (Universitat de Barcelona, priority 2018, published 2022):
“Also recorded” adds a separate entry of the source.

What was measured:
[1] = Dissolution of test compounds noted in the PAMPA-BBB assay (PBS:EtOH 70:30); assay type: physicochemical; design: key: *= poor dissolution
Description: (§1) To evaluate the brain penetration of the different compounds, a parallel artificial membrane permeation assay for blood-brain barrier was used, following the method described by Di et al. (cf. Table 2). The in vitro permeability (Pe) of fourteen commercial drugs through lipid extract of porcine brain membrane together with the test compounds were determined. Commercial drugs and assayed compounds were tested using a mixture of PBS:EtOH (70:30).

[2] = predictive penetration in the CNS from PAMPA-BBB Pe
Description: as §1

[3] = in vitro; settings: pig, PAMPA
Description: as §1

[4] = molecular target: I2-IR; assay: Competition binding against the selective I2-IR radioligand [3H]-2-BFI in membranes from post-mortem human frontal cortex; settings: membranes from post-mortem human frontal cortex; radioligand [3H]-2-BFI
[5] = system: SAMP8 mice; assay: Novel Object Recognition Test (NORT) in SAMP8 mice
Description: (§2) Mice were placed in a 90°, two-arm, 25-cm-long, 20-cm-high, 5-cm-wide black maze. The walls could be lifted off for easy cleaning. Light intensity in the middle of the field was 30 lux. The objects to be discriminated were made of plastic and were chosen not to frighten the mice, and objects with parts that could be bitten were avoided. Before performing the test, the mice were individually habituated to the apparatus for 10 min during 3 days. On day 4, the animals were submitted to a 10-min acquisition trial (first trial), during which they were placed in the maze in the presence of two identical, novel objects (A+A or B+B) at the end of each arm. A 10-min retention trial (second trial) was carried out 2 h later. During this second trial, objects A and B were placed in the maze and the behavior of the mice was recorded with a camera. Time that the mice explored the new object (TN) and Time that the mice explored the Old object (TO) were measured. A Discrimination Index (DI) was defined as (TN−TO)/(TN+TO). In order to avoid object preference biases, A and B were counterbalanced so that one half of the animals in each experimental group were exposed first to A and then to B, whereas the remaining half saw B first and then A. The maze and the objects were cleaned with 70° ethanol after each test in order to eliminate olfactory cues.

[6] = system: 5XFAD mice; assay: Novel Object Recognition Test (NORT) in 5XFAD mice
Description: as §2

[7] = system: II-6; assay: Gene expression of inflammatory marker II-6 by real-time PCR in SAMP8 mice
Description: (§3) Total RNA isolation was carried out by means of Trizol reagent following manufacturer's instructions. […] Samples were also tested in an Agilent 2100B Bioanalyzer (Agilent Technologies) to determine the RNA integrity number. Reverse Transcription-Polymerase Chain Reaction (RT-PCR) was performed as follows: 2 μg of messenger RNA (mRNA) was reverse-transcribed using the High Capacity complementary DNA (cDNA) Reverse Transcription Kit (Applied Biosystems). Normalization of expression levels was performed with actin. SYBER Green, real-time PCR was performed in the Step One Plus Detection System (Applied Biosystems) employing the SYBR Green PCR Master Mix. Each reaction mixture contained 7.5 μL of cDNA, whose concentration was 2 μg, 0.75 μL of each primer (whose concentration was 100 nM), and 7.5 μL of SYBR Green PCR Master Mix (2×). Data were analyzed utilizing the comparative Cycle threshold (Ct) method (Fold Change), where the actin transcript level was used to normalize differences in sample loading and preparation. Each sample (n=4-5) was analyzed in triplicate, and results represented the n-fold difference of transcript levels among different samples.

[8] = system: II-6; assay: Gene expression of inflammatory marker II-6 by real-time PCR in 5XFAD mice; settings: 5×FAD
Description: as §3

[9] = system: Cxcl10; assay: Gene expression of inflammatory marker Cxcl10 by real-time PCR in SAMP8 mice
Description: as §3

[10] = system: Cxcl10; assay: Gene expression of inflammatory marker Cxcl10 by real-time PCR in 5XFAD mice; settings: 5×FAD
Description: as §3

CCOP(=O)(OCC)[C@]1(c2ccccc2)N=C[C@H]2C(=O)N(c3cccc(Cl)c3)C(=O)[C@H]21 (racemic) [Compound I-53, Diethyl (1RS,3aSR,6aSR)-5-(3-chlorophenyl)-4,6-dioxo-1-phenyl-1,3a,4,5,6,6a-hexahydropyrrolo[3,4-c]pyrrole-1-phosphonate]
dissolution [1]: I-53*
CNS Prediction [2]: CNS+/− (compounds of uncertain BBB permeation (CNS+/−): 5,179>Pe (10^−6 cm s^−1)>2,083)
Papp [3]: 3.7 ± 0.1 ×10⁻⁶ cm/s

O=C1[C@@H]2[C@@H](C=N[C@@]2(c2ccccc2)P(=O)(Oc2ccccc2)Oc2ccccc2)C(=O)N1c1ccccc1 (racemic) [Compound I-26, Diphenyl (1RS,3aSR,6aSR)-4,6-dioxo-1,5-diphenyl-1,3a,4,5,6,6a-hexahydropyrrolo[3,4-c]pyrrole-1-phosphonate]
dissolution [1]: I-26*
CNS Prediction [2]: CNS+/− (compounds of uncertain BBB permeation (CNS+/−): 5,179>Pe (10^−6 cm s^−1)>2,083)
Papp [3]: 2.3 ± 0.04 ×10⁻⁶ cm/s
[^3H]-2-BFI I2 binding affinity (pKi) [4]: 5.86 ± 1.22

CCOP(=O)(OCC)[C@]1(c2ccccc2)N=C[C@H]2C(=O)N(c3cccc([N+](=O)[O-])c3)C(=O)[C@H]21 (racemic) [Compound I-28, Diethyl (1RS,3aSR,6aSR)-5-(3-nitrophenyl)-4,6-dioxo-1-phenyl-1,3a,4,5,6,6a-hexahydropyrrolo[3,4-c]pyrrole-1-phosphonate]
dissolution [1]: I-28*
CNS Prediction [2]: CNS+/− (compounds of uncertain BBB permeation (CNS+/−): 5,179>Pe (10^−6 cm s^−1)>2,083)
Papp [3]: 4.5 ± 0.25 ×10⁻⁶ cm/s
[^3H]-2-BFI I2 binding affinity (pKi) [4]: 6.81 ± 0.27

CCOP(=O)(OCC)[C@]1(c2ccccc2)N=C[C@H]2C(=O)N(c3ccc(Br)cc3)C(=O)[C@H]21 (racemic) [Compound I-47, Diethyl (1RS,3aSR,6aSR)-5-(4-bromophenyl)-4,6-dioxo-1-phenyl-1,3a,4,5,6,6a-hexahydropyrrolo[3,4-c]pyrrole-1-phosphonate]
dissolution [1]: I-47*
CNS Prediction [2]: CNS+/− (compounds of uncertain BBB permeation (CNS+/−): 5,179>Pe (10^−6 cm s^−1)>2,083)
Papp [3]: 4.4 ± 0.4 ×10⁻⁶ cm/s

CCOP(=O)(OCC)[C@]1(c2ccccc2)N=C[C@H]2C(=O)N(Cc3ccccc3)C(=O)[C@H]21 (racemic) [Compound I-29, Diethyl (1RS,3aSR,6aSR)-5-benzyl-4,6-dioxo-1-phenyl-1,3a,4,5,6,6a-hexahydropyrrolo[3,4-c]pyrrole-1-phosphonate]
dissolution [1]: I-29*
CNS Prediction [2]: CNS+ (compounds of high BBB permeation (CNS+): Pe (10^−6 cm s^−1)>5,179)
Papp [3]: > 30 ×10⁻⁶ cm/s
[^3H]-2-BFI I2 binding affinity (pKi) [4]: 5.26 ± 0.22

CCOP(=O)(OCC)[C@]1(c2ccccc2)N=C[C@H]2C(=O)N(c3ccc(F)c(Cl)c3)C(=O)[C@H]21 (racemic) [Compound I-06, Diethyl (1RS,3aSR,6aSR)-5-(3-chloro-4-fluorophenyl)-4,6-dioxo-1-phenyl-1,3a,4,5,6,6a-hexahydropyrrolo[3,4-c]pyrrole-1-phosphonate]
CNS Prediction [2]: CNS+ (compounds of high BBB permeation (CNS+): Pe (10^−6 cm s^−1)>5,179)
Papp [3]: 9.7 ± 0.7 ×10⁻⁶ cm/s
cognitive / memory effect in NORT (in words) ([5]; SAMP8 mice, treated group compared to the control): reduced memory deficits; also recorded: improves cognitive abilities
DI (−1, 1) NORT 2 h ([5]; female SAMP8 mice at 12 months, 5 mg/kg, retention 2 h, mean ± SEM): 0.33 ± 0.071
DI (−1, 1) NORT 24 h ([5]; female SAMP8 mice at 12 months, 5 mg/kg, retention 24 h): 0.273 ± 0.042
cognitive / memory effect in NORT (in words) ([6]; 5XFAD mice, treated group compared to the control): recovered DI levels of the Wild Type (Wt) control group; also recorded: improves cognitive abilities
DI (−1, 1) NORT 2 h ([6]; female 5XFAD mice at 6 months, 5 mg/kg, retention 2 h): 0.199 ± 0.053
DI (−1, 1) NORT 24 h ([6]; female 5XFAD mice at 6 months, 5 mg/kg, retention 24 h): 0.229 ± 0.051
II-6 marker of neuroinflammation, gene expression in brain (in words) [7]: reduced
II-6 marker of neuroinflammation, gene expression in brain (in words) [8]: reduced
Cxcl10 marker of neuroinflammation, gene expression in brain (in words) [9]: reduced
Cxcl10 marker of neuroinflammation, gene expression in brain (in words) [10]: reduced

CCOP(=O)(OCC)[C@]1(c2ccccc2)N=C[C@H]2C(=O)N(c3cc([N+](=O)[O-])ccc3C)C(=O)[C@H]21 (racemic) [Compound I-50, Diethyl (1RS,3aSR,6aSR)-5-(2-methyl-5-nitrophenyl)-4,6-dioxo-1-phenyl-1,3a,4,5,6,6a-hexahydropyrrolo[3,4-c]pyrrole-1-phosphonate]
dissolution [1]: I-50*
CNS Prediction [2]: CNS− (compounds of low BBB permeation (CNS−): Pe (10^−6 cm s^−1)<2,083)
Papp [3]: 1.4 ± 0.04 ×10⁻⁶ cm/s
